Experimental data from EPA's aquatic toxicity sets.

Assays:
[1] = test system: Pimephales promelas; assay: 96 h LC50 (-log10 mol/L); higher = more toxic
[2] = test system: Tetrahymena pyriformis; assay: 48 h IGC50 (-log10 mol/L); higher = more toxic

| SMILES | 96 h LC50 (-log10 mol/L) [1] | 48 h IGC50 (-log10 mol/L) [2] |
| --- | --- | --- |
| S=c1[nH]c2cc(Cl)ccc2s1 | 4.8 |  |
| CC(=O)O | 2.86 |  |
| O=Cc1c(F)cccc1Cl | 4.23 |  |
| CC(C)OC(C)C | 2.11 |  |
| CCN(CC)c1ccc(C=O)cc1 | 3.87 |  |
| CCc1cccc(C)c1N(C(=O)CCl)C(C)COC (stereo not drawn) | 4.54 |  |
| CC(C)(C)CC(C)(C)N | 3.72 |  |
| Cc1ccc(Cl)c(Cl)c1 | 4.74 |  |
| Nc1ccc([N+](=O)[O-])cc1Cl | 3.93 |  |
| CC12CCC(CC1)C(C)(C)O2 | 3.18 |  |
| O=S(=O)([O-])c1ccc[n+](Cc2ccccc2)c1 | 2.02 |  |
| CCOC(N)=O | 1.23 |  |
| O=S(Cc1ccccc1)Cc1ccccc1 | 3.46 |  |
| CC1CNCC(C)O1 (stereo not drawn) | 2.47 |  |
| Clc1ccc(C(c2ccc(Cl)cc2)C(Cl)Cl)cc1 | 4.86 |  |
| OCCN1CCNCC1 | 1.31 |  |
| Cc1cccnc1 | 2.81 |  |
| CCOC(=O)C(C)Oc1ccc(Oc2nc3ccc(Cl)cc3o2)cc1 (stereo not drawn) | 4.71 |  |
| OC(c1ccc(Cl)cc1)(c1ccc(Cl)cc1)C(Cl)(Cl)Cl | 5.86 |  |
| ClC1C(Cl)C(Cl)C(Cl)C(Cl)C1Cl (stereo not drawn) | 6.61 |  |
| CCN(CC)c1ccc(C=O)c(O)c1 | 4.56 |  |
| NCCCN1CCN(CCCN)CC1 | 1.81 |  |
| CN(C)C(=O)C(c1ccccc1)c1ccccc1 | 3.7 |  |
| CC(=O)Nc1ccccc1O | 3.66 |  |
| CC=CC=CC | 3.61 |  |

| SMILES | 96 h LC50 (-log10 mol/L) [1] | 48 h IGC50 (-log10 mol/L) [2] |
| --- | --- | --- |
| Oc1ccc(Cl)cc1 | 4.46 |  |
| CCN(CC)N=O | 2.12 |  |
| CC(=O)/C=C/C1=C(C)CCCC1(C)C | 4.58 |  |
| C#CC(C)(O)c1ccccc1 (stereo not drawn) | 3.11 |  |
| CCC(=O)c1ccc(N)cc1 | 3.01 |  |
| CC(O)C#N (stereo not drawn) | 4.9 |  |
| COc1ccc(C=O)c(OC)c1 | 3.92 |  |
| CCN(CC)CCCC(C)=O | 2.67 |  |
| CCOP(=S)(OCC)SC1OCCOC1SP(=S)(OCC)OCC (stereo not drawn) | 4.66 |  |
| Fc1ccc(Oc2ccc(F)cc2)cc1 | 5.26 |  |
| Nc1ccccc1C(=O)c1ccc(Cl)cc1 | 5.04 |  |
| Cc1c(Cl)cc(C(C)(C)C)c(O)c1C(=O)Nc1ccc([N+](=O)[O-])cc1Cl | 7.69 |  |
| ClC1=C(Cl)[C@]2(Cl)C3C(Cl)C(Cl)CC3[C@@]1(Cl)C2(Cl)Cl (stereo partly drawn) | 6.82 |  |
| CCOC(=O)c1ccccc1O | 3.92 |  |
| CC1CNCCN1 (stereo not drawn) | 1.65 |  |
| Cl[C@@H]1CCCC[C@H]1Cl | 3.92 |  |
| CC(=O)Cl | 3.27 |  |
| CCCCCCC(C)N (stereo not drawn) | 4.4 |  |
| CCOC(=O)CC(S)C(=O)OCC (stereo not drawn) | 3.77 |  |
| C=C(C)C(=C)C | 4.08 |  |
| CCN(CC)C1CCCCC1 | 3.86 |  |
| CN(C)N | 3.88 |  |
| CC(Oc1cc(Cl)c(Cl)cc1Cl)C(=O)O (stereo not drawn) | 4.2 |  |
| C#CC(O)CCCCC (stereo not drawn) | 5.49 |  |
| OC1COC(O)C(O)C1O (stereo not drawn) | 0.6 |  |

| SMILES | 96 h LC50 (-log10 mol/L) [1] | 48 h IGC50 (-log10 mol/L) [2] |
| --- | --- | --- |
| O=P(c1ccccc1)(c1ccccc1)c1ccccc1 | 3.71 |  |
| Cc1ccc(N=C=O)cc1N=C=O | 3.02 |  |
| CC(C)(C)c1ccc(C(N)=O)cc1 | 3.75 |  |
| C=C(C)[C@H]1CC=C(C)CC1 | 5.28 |  |
| Cc1ccc(S(=O)(=O)n2ccnc2)cc1 | 3.73 |  |
| Nc1ccc(O)c([N+](=O)[O-])c1 | 3.63 |  |
| CC1(C)CCC(C)(C)O1 | 2.88 |  |
| c1cc[n+]2c(c1)-c1cccc[n+]1CC2 | 4.12 |  |
| COc1ccccc1C(N)=O | 3.1 |  |
| Nc1ccc(-c2ccc(N)c(Cl)c2)cc1Cl | 5.08 |  |
| O=C(O)C(Br)Br | 3.5 |  |
| OCCN(CCO)c1ccccc1 | 2.39 |  |
| C=C(C)C(=O)OCC1CCCO1 (stereo not drawn) | 3.69 |  |
| CCNc1nc(NC(C)C)nc(SC)n1 | 4.38 |  |
| CCCCOCCOC(=O)C(C)Oc1cc(Cl)c(Cl)cc1Cl (stereo not drawn) | 5.57 |  |
| BrCCCBr | 5.05 |  |
| Clc1cccc(C(Cl)(Cl)Cl)n1 | 4.37 |  |
| CNC(=O)ON=C(SC)C(=O)N(C)C | 4.51 |  |
| C1COCCO1 | 0.931 |  |
| CS(=O)(=O)Oc1ccc(Cl)cc1Cl | 4.74 |  |
| CCCCO | 1.59 |  |
| COc1ccc(C(c2ccc(OC)cc2)C(Cl)(Cl)Cl)cc1 | 7.61 |  |
| CCCCOC(=O)c1ccc(C(=O)OCCCC)cc1 | 5.67 |  |
| O=C(O)c1c(F)cccc1F | 3.36 |  |
| ClCc1ccccc1 | 4.4 |  |

| SMILES | 96 h LC50 (-log10 mol/L) [1] | 48 h IGC50 (-log10 mol/L) [2] |
| --- | --- | --- |
| N#Cc1cccc(C(F)(F)F)c1 | 3.56 |  |
| O=S1OCC2C(CO1)C1(Cl)C(Cl)=C(Cl)C2(Cl)C1(Cl)Cl (stereo not drawn) | 8.48 |  |
| CC(C)(O)C(F)(F)C(F)F | 2.44 |  |
| CC(C)(c1cc(Br)c(O)c(Br)c1)c1cc(Br)c(O)c(Br)c1 | 5.83 |  |
| c1ccc(-c2cccc(-c3ccccc3)n2)cc1 | 6.04 |  |
| CC(C)Oc1cccc(NC(=O)c2ccccc2C(F)(F)F)c1 | 4.83 |  |
| O=C1C2CC3CC(C2)CC1C3 | 3.39 |  |
| CC(C)=CCC/C(C)=C/CN(C/C=C(\C)CCC=C(C)C)CCO | 6.41 |  |
| Nc1ccc(F)c(C(F)(F)F)c1 | 3.77 |  |
| C=CC(C)(O)CC/C=C(\C)CCC=C(C)C (stereo not drawn) | 5.19 |  |
| ClCCOCOCCCl | 2.97 |  |
| CC(C)Nc1nc(Cl)nc(NC2CC2)n1 | 4.8 |  |
| CC(Cl)(Cl)C(=O)O | 2.69 |  |
| O=C(O)c1c(Cl)ccc(Cl)c1Cl | 4.42 |  |
| CC(C)=C1C=C2CC[C@@H]3[C@](C)(CCC[C@@]3(C)C(=O)O)[C@H]2CC1 | 5.31 |  |
| Oc1ccc(Oc2ccc(O)cc2)cc1 | 4.54 |  |
| CCOC(=O)C(F)(F)F | 1.15 |  |
| CC(C)[C@@H]1CC[C@@H](C)C[C@H]1O | 3.92 |  |
| CCN1C(=O)CC(=O)N(CC)C1=S | 1.65 |  |
| CC(C)(C)c1ccc(CSc2cnn(C(C)(C)C)c(=O)c2Cl)cc1 | 8.2 |  |
| CCC(C)n1c(=O)[nH]c(C)c(Br)c1=O (stereo not drawn) | 3.15 |  |
| Cc1ccc(N(C)C)cc1 | 3.42 |  |
| CNC(=O)Oc1ccc(N(C)C)c(C)c1 | 5.03 |  |
| C=CCNc1ccccc1 | 3.57 |  |
| ClC1=C(Cl)C2(Cl)C3C(Cl)C=CC3C1(Cl)C2(Cl)Cl (stereo not drawn) | 6.75 |  |

| SMILES | 96 h LC50 (-log10 mol/L) [1] | 48 h IGC50 (-log10 mol/L) [2] |
| --- | --- | --- |
| c1ccc(Nc2ccccc2)cc1 | 4.65 |  |
| C1CN2CCN1CC2 | 1.81 |  |
| COc1ccc(OC)cc1 | 3.07 |  |
| CCOC(=O)CCC(=O)OCC | 3.1 |  |
| CC(C)(c1cc(Cl)c(O)c(Cl)c1)c1cc(Cl)c(O)c(Cl)c1 | 5.44 |  |
| CC(=O)Br | 3.48 |  |
| CC(C)(C)CCN | 2.23 |  |
| Cc1cc(Cl)ccc1OCCCC(=O)O | 4.26 |  |
| Cc1cc(N)c([N+](=O)[O-])cc1C |  | 3.45 |
| Brc1ccccn1 |  | 2.46 |
| CC(C)(C)C(=O)O |  | 2.75 |
| C#CC(O)CCCC (stereo not drawn) |  | 2.73 |
| CCCCCC(O)CC (stereo not drawn) |  | 2.94 |
| O=[N+]([O-])c1c(Cl)ncnc1Cl |  | 5.12 |
| CC=CC(=O)OC(C)C |  | 2.22 |
| CC=CC(C)O (stereo not drawn) |  | 1.6 |
| CC1CCC(=O)O1 (stereo not drawn) |  | 1.43 |
| OCCCc1ccccc1 |  | 2.79 |
| Nc1c(Cl)cc([N+](=O)[O-])cc1[N+](=O)[O-] |  | 4.12 |
| CCOC(=O)C[C@@H](C)O |  | 1.47 |
| COc1cc(C#N)ccc1O |  | 2.97 |
| CCS(=O)(=O)c1ccccc1 |  | 2.21 |
| CC(=O)OCCCCBr |  | 3.39 |
| O=[N+]([O-])c1ccc(O)c(F)c1 |  | 4.07 |
| COc1cc(Cl)cc(Cl)c1 |  | 3.93 |

| SMILES | 96 h LC50 (-log10 mol/L) [1] | 48 h IGC50 (-log10 mol/L) [2] |
| --- | --- | --- |
| OCc1c(F)c(F)c(F)c(F)c1F |  | 2.8 |
| O=Cc1cccs1 |  | 2.95 |
| CCC(C)CO (stereo not drawn) |  | 2.05 |
| S=C=Nc1ccc2c(c1)CCC2 |  | 5.48 |
| O=C(OCc1ccccc1)c1ccccc1 |  | 4.45 |
| COC(=O)c1ccc(C#N)cc1 |  | 2.95 |
| Cc1ccc(Br)cc1 |  | 3.47 |
| O=Cc1ccc(O)cc1Cl |  | 3.89 |
| Nc1ccc([N+](=O)[O-])cn1 |  | 3.22 |
| COC(=O)CCCCCCC(=O)OC |  | 3.3 |
| CCCCCCCC(C)O (stereo not drawn) |  | 3.62 |
| SC1CCCCC1 |  | 3 |
| N#Cc1ccccc1[N+](=O)[O-] |  | 4.08 |
| O=[N+]([O-])c1cc(Br)cc(F)c1O |  | 4.62 |
| C/C=C/C(=O)CCCC |  | 4.01 |
| c1ccc(Cc2ccccn2)cc1 |  | 3.38 |
| COc1ccc(N)cc1O |  | 3.45 |
| CC(=O)NN |  | 1.62 |
| CC(CCO)c1ccccc1 (stereo not drawn) |  | 3.01 |
| CC(C)(C)N |  | 2.1 |
| O=C1CCCC(=O)C1 |  | 2.07 |
| CNCCO |  | 1.18 |
| Cc1ccc(Cl)c(N)c1Cl |  | 3.69 |
